From US8993565B2, “(6-oxo-1,6-dihydropyrimidin-2-yl)amide derivatives, preparation thereof and pharmaceutical use thereof as AKT(PKB) phosphorylation inhibitors” (Sanofi, priority 2009, dated 2015)

Tested on: AKT protein phosphorylated on serine 473 (P-AKT-S473)
Assay: Study of pAKT expression in PC3 human prostate carcinoma cells measured by the MSD Multi-spot Biomarker Detection technique (Test B)
Assay type: cell-based
Settings: PC-3, inhibition of AKT phosphorylation (P-AKT-S473), MSD sandwich immunoassay, 1 to 2 h incubation, absolute IC50, mean of 2 experiments
Experimental: The inhibitory activity of the molecules on AKT phosphorylation is measured either by western blotting using the technique described below, or by the MSD Multi-spot Biomarker detection technique from Meso Scale Discovery also described below.
Study of pAKT Expression in PC3 Human Prostate Carcinoma Cells Measured by the MSD Multi-Spot Biomarker Detection Technique from Meso Scale Discovery (Test B):
The primary antibody specific for P-AKT-S473 (Kit #K151CAD) is coated on to an electrode in each well of the 96-well plates of the MSD, kit: after the addition of a protein lysate to each well, the signal is visualised by adding a secondary detection antibody labelled with an electrochemoluminescent compound. The procedure followed is that described in the kit.
On day 2, the cells are incubated in the presence or absence of the test products for 1 to 2 h at 37° C. in the presence of 5% of CO2. The molecules, diluted in dimethyl sulphoxide (DMSO Sigma #D2650), are added from a 20-times concentrated stock solution, the final percentage of DMSO being 0.1%. The molecules are tested either at a single concentration of less than or equal to 10 μM, or at increasing concentrations in a range that can extend from less than 1 nM to 10 μM.
After this incubation, the cells are lysed for the preparation of the proteins. […] At this stage, the plates containing the lysates can be stored at −20° C. or at −80° C.
The wells of the 96-well plates of the MSD kit are saturated for 1 h at ambient temperature with the blocking solution of the MSD kit. Four washes are carried out with 150 μl of Tris Wash Buffer of the MSD kit. The lysates previously prepared are transferred into the 96-well multi-spot plates of the MSD kit and incubated for 1 h at ambient temperature, with shaking. Four washes are carried out with 150 μl of Tris Wash Buffer of the MSD kit. 25 μl of the MSD sulfo-tag detection antibody solution are added to the wells and incubated for 1 h at ambient temperature, with shaking. Four washes are carried out with 150 μl of Tris Wash Buffer of the MSD kit. 150 μl of Read Buffer of the MSD kit are added to the wells and the plates are read immediately on the S12400 instrument from Meso Scale Discovery.
The instrument measures a signal for each well. Wells without cells and containing the lysis buffer serve to determine the background noise that will be subtracted from all the measurements (min). The wells containing cells in the absence of product and in the presence of 0.1% DMSO are considered to be the 100% signal (max). The percentage inhibition is calculated for each concentration of test product according to the following formula: (1-((test-min)(max-min)))×100.
2 independent experiments make it possible to calculate the mean of the IC50 values.

| SMILES | IC50 |
| --- | --- |
| O=C(Cc1nc(N2CCOCC2)cc(=O)[nH]1)N1CCOc2c(Cl)cccc21 [Example 149, 2-[2-(8-chloro-2,3-dihydro-4H-1,4-benzoxazin-4-yl)-2-oxoethyl]-6-(morpholin-4-yl)pyrimidin-4(3H)-one] | 0.043 µM |
| O=C(Cc1nc(N2CCOCC2)cc(=O)[nH]1)Nc1cccc([N+](=O)[O-])c1O [Example 151, N-(2-hydroxy-3-nitrophenyl)-2-[4-(morpholin-4-yl)-6-oxo-1,6-dihydropyrimidin-2-yl]acetamide] | 0.029 µM |
| O=C(Cc1nc(N2CCOCC2)cc(=O)[nH]1)Nc1cccc(C(F)(F)F)c1O [Example 153, N-[2-hydroxy-3-(trifluoromethyl)phenyl]-2-[4-(morpholin-4-yl)-6-oxo-1,6-dihydropyrimidin-2-yl]acetamide] | 0.049 µM |
| CC1(C)CN(C(=O)Cc2nc(N3CCOCC3)cc(=O)[nH]2)c2ccccc21 [Example 154, 2-[2-(3,3-dimethyl-2,3-dihydro-1H-indol-1-yl)-2-oxoethyl]-6-(morpholin-4-yl)pyrimidin-4(3H)-one] | 0.028 µM |

The remaining lines, values ahead:

| IC50 | SMILES |
| --- | --- |
| 0.189 µM | Cc1cccc(NC(=O)Cc2nc(N3CCOCC3)cc(=O)[nH]2)c1O [Example 150, N-(2-hydroxy-3-methylphenyl)-2-[4-(morpholin-4-yl)-6-oxo-1,6-dihydropyrimidin-2-yl]acetamide] |
| 0.938 µM | N#Cc1cccc(NC(=O)Cc2nc(N3CCOCC3)cc(=O)[nH]2)c1O [Example 152, N-(3-cyano-2-hydroxyphenyl)-2-[4-(morpholin-4-yl)-6-oxo-1,6-dihydropyrimidin-2-yl]acetamide] |
